Data as given in PMC11314561, “Design and Synthesis of Novel Aminoindazole-pyrrolo[2,3-b]pyridine Inhibitors of IKKα That Selectively Perturb Cellular Non-Canonical NF-κB Signalling” (Molecules, 2024).

Tests used:
[1] = biological target: NEK7(h) (Homo sapiens, UniProt Q8TDX7); assay: kinase panel; format: biochemical
Method in brief: (§1)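 % inhibition read-out; kinome panel of 231 kinases; one analogue run on a selected 98-kinase subset only.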

[2] = biological target: CLK3(h) (Homo sapiens, UniProt P49761); assay: kinase panel; format: biochemical
Method in brief: as §1

[3] = biological target: DDR2(h) (Homo sapiens, UniProt Q16832); assay: kinase panel; format: biochemical
Method in brief: as §1

[4] = biological target: BTK(h) (Homo sapiens, UniProt Q06187); assay: kinase panel; format: biochemical
Method in brief: as §1

[5] = biological target: PEK(h) (Homo sapiens, UniProt Q9NZJ5); assay: kinase panel; format: biochemical
Method in brief: as §1

[6] = biological target: Tec(h) activated (Homo sapiens, UniProt P42680); assay: kinase panel; format: biochemical
Method in brief: as §1

[7] = biological target: DRAK1(h) (Homo sapiens, UniProt Q9UEE5); assay: kinase panel; format: biochemical
Method in brief: as §1

[8] = biological target: PKBβ(h) (Homo sapiens, UniProt P31751); assay: kinase panel; format: biochemical
Method in brief: as §1

[9] = biological target: NEK11(h) (Homo sapiens, UniProt Q8NG66); assay: kinase panel; format: biochemical
Method in brief: as §1

[10] = biological target: GRK7(h) (Homo sapiens, UniProt Q8WTQ7); assay: kinase panel; format: biochemical
Method in brief: as §1

[11] = biological target: CK1γ3(h) (Homo sapiens, UniProt Q9Y6M4); assay: kinase panel; format: biochemical
Method in brief: as §1

[12] = biological target: NLK(h) (Homo sapiens, UniProt Q9UBE8); assay: kinase panel; format: biochemical
Method in brief: as §1

[13] = biological target: Tie2 (h) (Homo sapiens, UniProt Q02763); assay: kinase panel; format: biochemical
Method in brief: as §1

[14] = biological target: ULK3(h) (Homo sapiens, UniProt Q6PHR2); assay: kinase panel; format: biochemical
Method in brief: as §1

[15] = biological target: FAK(h) (Homo sapiens, UniProt Q05397); assay: kinase panel; format: biochemical
Method in brief: as §1

[16] = biological target: SAPK2b(h) (Homo sapiens, UniProt Q15759); assay: kinase panel; format: biochemical
Method in brief: as §1

[17] = biological target: Fer(h) (Homo sapiens, UniProt P16591); assay: kinase panel; format: biochemical
Method in brief: as §1

[18] = biological target: Rse(h) (Homo sapiens, UniProt Q06418); assay: kinase panel; format: biochemical
Method in brief: as §1

[19] = biological target: MRCKβ(h) (Homo sapiens, UniProt Q9Y5S2); assay: kinase panel; format: biochemical
Method in brief: as §1

[20] = biological target: MSK2(h) (Homo sapiens, UniProt O75676); assay: kinase panel; format: biochemical
Method in brief: as §1

[21] = biological target: PAK6(h) (Homo sapiens, UniProt Q9NQU5); assay: kinase panel; format: biochemical
Method in brief: as §1

[22] = biological target: Bmx(h) (Homo sapiens, UniProt P51813); assay: kinase panel; format: biochemical
Method in brief: as §1

[23] = biological target: BrSK1(h) (Homo sapiens, UniProt Q8TDC3); assay: kinase panel; format: biochemical
Method in brief: as §1

[24] = biological target: SIK(h) (Homo sapiens, UniProt P57059); assay: kinase panel; format: biochemical
Method in brief: as §1

[25] = biological target: PhKγ2(h) (Homo sapiens, UniProt P15735); assay: kinase panel; format: biochemical
Method in brief: as §1

[26] = biological target: PrKX(h) (Homo sapiens, UniProt P51817); assay: kinase panel; format: biochemical
Method in brief: as §1

[27] = biological target: WNK2(h) (Homo sapiens, UniProt Q9Y3S1); assay: kinase panel; format: biochemical
Method in brief: as §1

[28] = biological target: FGFR2(h) (Homo sapiens, UniProt P21802); assay: kinase panel; format: biochemical
Method in brief: as §1

[29] = biological target: Fgr(h) (Homo sapiens, UniProt P09769); assay: kinase panel; format: biochemical
Method in brief: as §1

[30] = biological target: MAPKAP-K3(h) (Homo sapiens, UniProt Q16644); assay: kinase panel; format: biochemical
Method in brief: as §1

[31] = biological target: TLK2(h) (Homo sapiens, UniProt Q86UE8); assay: kinase panel; format: biochemical
Method in brief: as §1

[32] = biological target: EphA7(h) (Homo sapiens, UniProt Q15375); assay: kinase panel; format: biochemical
Method in brief: as §1

[33] = biological target: EphB2(h) (Homo sapiens, UniProt P29323); assay: kinase panel; format: biochemical
Method in brief: as §1

[34] = biological target: PKCε(h) (Homo sapiens, UniProt Q02156); assay: kinase panel; format: biochemical
Method in brief: as §1

[35] = biological target: SGK3(h) (Homo sapiens, UniProt Q96BR1); assay: kinase panel; format: biochemical
Method in brief: as §1

[36] = biological target: EphB1(h) (Homo sapiens, UniProt P54762); assay: kinase panel; format: biochemical
Method in brief: as §1

[37] = biological target: AMPKα2(h) (Homo sapiens, UniProt P54646); assay: kinase panel; format: biochemical
Method in brief: as §1

[38] = system: panel of 231 kinases; assay: Kinome profiling, summary; format: biochemical, human; conditions: 1 μM
Description: We profiled three compounds from the series across the kinome (Table S1).
Ta b l e S1. The % inhibition of compounds 4, 5r [SU1261], and 6g [SU1349] against a
panel of kinase enzymes. We proϐiled three compounds from the series across 231
kinases. For SU1349, given its structural similarity with SU1261, we selected 98 from the
Tested kinase % inhibiƟon

Sequence of PrKX(h) (P51817 whole entry): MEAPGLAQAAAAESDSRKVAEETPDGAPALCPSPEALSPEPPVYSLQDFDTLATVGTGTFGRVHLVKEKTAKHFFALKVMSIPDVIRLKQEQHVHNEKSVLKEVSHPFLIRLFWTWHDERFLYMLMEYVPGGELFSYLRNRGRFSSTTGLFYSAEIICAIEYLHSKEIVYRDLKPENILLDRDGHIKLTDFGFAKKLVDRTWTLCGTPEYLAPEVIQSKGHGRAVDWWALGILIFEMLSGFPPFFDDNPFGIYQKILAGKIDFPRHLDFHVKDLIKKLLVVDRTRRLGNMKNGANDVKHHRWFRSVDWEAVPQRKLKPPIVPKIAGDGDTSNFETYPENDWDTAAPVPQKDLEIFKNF
Sequence of Tec(h) activated (P42680 whole entry): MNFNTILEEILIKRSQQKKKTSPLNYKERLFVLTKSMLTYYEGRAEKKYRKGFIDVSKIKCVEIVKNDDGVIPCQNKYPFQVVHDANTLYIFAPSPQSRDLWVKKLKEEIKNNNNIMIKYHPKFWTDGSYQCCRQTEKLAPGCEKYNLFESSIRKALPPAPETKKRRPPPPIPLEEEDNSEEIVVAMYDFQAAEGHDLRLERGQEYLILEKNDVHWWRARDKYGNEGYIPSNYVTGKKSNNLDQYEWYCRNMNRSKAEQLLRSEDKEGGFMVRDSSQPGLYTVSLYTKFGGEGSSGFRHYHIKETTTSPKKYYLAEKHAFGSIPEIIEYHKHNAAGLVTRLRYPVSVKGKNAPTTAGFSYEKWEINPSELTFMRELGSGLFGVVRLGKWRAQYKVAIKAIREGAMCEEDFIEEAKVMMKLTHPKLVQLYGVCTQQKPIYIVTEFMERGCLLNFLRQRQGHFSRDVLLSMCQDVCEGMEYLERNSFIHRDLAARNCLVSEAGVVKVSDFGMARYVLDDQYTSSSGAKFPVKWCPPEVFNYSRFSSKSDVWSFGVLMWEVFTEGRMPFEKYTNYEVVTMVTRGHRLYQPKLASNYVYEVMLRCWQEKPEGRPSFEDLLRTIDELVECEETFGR
Sequence of DRAK1(h) (Q9UEE5 whole entry): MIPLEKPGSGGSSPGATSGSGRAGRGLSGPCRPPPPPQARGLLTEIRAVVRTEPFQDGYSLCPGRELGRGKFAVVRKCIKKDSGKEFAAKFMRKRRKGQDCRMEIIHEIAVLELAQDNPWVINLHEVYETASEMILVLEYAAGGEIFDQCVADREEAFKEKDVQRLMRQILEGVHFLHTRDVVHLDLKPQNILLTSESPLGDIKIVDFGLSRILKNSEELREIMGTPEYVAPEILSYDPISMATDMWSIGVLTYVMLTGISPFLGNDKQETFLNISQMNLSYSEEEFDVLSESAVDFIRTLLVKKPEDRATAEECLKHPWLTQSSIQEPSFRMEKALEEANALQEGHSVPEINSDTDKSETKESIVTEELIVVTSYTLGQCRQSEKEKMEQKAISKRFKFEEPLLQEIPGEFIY
Sequence of BTK(h) (Q06187 whole entry): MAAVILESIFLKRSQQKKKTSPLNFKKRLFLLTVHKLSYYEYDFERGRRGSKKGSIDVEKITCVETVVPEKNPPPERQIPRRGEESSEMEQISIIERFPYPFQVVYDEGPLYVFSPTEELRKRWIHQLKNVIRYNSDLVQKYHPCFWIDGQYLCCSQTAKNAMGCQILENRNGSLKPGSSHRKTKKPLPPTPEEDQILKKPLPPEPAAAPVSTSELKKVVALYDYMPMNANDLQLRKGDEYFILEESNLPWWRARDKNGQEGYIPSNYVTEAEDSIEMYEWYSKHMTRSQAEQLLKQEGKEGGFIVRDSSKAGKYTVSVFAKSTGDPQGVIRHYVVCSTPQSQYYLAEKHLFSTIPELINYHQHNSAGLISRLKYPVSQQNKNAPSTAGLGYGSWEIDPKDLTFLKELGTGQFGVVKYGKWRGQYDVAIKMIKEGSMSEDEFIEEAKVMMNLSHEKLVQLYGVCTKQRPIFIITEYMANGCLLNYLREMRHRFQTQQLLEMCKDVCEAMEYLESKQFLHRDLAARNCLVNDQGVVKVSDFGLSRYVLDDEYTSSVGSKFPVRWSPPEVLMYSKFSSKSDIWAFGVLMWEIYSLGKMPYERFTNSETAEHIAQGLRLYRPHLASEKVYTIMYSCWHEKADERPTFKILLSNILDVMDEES
Sequence of NEK11(h) (Q8NG66 whole entry): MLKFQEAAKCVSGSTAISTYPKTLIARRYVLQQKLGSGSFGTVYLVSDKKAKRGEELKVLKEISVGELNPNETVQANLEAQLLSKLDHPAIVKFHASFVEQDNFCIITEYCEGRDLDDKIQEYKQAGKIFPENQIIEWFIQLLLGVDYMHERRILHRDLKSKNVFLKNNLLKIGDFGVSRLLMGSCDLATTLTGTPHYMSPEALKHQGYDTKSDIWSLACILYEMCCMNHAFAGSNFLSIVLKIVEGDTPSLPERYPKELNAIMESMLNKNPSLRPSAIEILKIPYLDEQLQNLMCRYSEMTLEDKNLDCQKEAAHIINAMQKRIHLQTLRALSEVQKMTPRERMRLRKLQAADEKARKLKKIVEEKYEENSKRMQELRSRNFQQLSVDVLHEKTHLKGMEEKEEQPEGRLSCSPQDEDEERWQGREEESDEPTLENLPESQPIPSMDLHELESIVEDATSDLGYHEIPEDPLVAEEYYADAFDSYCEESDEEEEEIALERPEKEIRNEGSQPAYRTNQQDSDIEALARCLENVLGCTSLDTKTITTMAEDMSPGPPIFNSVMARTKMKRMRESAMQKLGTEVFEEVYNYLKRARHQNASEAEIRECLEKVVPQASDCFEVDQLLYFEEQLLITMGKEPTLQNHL
Sequence of PhKγ2(h) (P15735 whole entry): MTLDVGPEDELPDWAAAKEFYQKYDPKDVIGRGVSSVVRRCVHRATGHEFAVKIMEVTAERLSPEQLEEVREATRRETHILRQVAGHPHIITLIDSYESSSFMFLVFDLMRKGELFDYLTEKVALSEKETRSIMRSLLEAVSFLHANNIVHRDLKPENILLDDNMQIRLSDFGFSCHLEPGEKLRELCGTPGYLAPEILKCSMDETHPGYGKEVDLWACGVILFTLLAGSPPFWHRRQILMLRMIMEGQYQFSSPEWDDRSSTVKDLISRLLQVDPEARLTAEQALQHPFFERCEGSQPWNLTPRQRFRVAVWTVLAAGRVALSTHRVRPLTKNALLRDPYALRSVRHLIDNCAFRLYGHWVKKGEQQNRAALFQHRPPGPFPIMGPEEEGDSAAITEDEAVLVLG
Sequence of SGK3(h) (Q96BR1 whole entry): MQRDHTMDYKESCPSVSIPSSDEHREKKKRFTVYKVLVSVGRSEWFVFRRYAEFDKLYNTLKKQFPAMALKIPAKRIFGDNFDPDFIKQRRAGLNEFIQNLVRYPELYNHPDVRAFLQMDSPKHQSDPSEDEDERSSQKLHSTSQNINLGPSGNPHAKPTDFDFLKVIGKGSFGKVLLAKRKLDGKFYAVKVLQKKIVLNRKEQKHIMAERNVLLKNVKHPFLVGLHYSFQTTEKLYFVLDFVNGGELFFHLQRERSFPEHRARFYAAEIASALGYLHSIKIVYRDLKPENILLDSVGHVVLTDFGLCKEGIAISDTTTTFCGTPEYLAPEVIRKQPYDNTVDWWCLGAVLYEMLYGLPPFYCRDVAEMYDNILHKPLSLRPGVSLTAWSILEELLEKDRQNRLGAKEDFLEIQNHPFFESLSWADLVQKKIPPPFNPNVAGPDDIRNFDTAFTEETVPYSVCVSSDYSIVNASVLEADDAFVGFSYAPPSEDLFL
Sequence of SIK(h) (P57059 whole entry): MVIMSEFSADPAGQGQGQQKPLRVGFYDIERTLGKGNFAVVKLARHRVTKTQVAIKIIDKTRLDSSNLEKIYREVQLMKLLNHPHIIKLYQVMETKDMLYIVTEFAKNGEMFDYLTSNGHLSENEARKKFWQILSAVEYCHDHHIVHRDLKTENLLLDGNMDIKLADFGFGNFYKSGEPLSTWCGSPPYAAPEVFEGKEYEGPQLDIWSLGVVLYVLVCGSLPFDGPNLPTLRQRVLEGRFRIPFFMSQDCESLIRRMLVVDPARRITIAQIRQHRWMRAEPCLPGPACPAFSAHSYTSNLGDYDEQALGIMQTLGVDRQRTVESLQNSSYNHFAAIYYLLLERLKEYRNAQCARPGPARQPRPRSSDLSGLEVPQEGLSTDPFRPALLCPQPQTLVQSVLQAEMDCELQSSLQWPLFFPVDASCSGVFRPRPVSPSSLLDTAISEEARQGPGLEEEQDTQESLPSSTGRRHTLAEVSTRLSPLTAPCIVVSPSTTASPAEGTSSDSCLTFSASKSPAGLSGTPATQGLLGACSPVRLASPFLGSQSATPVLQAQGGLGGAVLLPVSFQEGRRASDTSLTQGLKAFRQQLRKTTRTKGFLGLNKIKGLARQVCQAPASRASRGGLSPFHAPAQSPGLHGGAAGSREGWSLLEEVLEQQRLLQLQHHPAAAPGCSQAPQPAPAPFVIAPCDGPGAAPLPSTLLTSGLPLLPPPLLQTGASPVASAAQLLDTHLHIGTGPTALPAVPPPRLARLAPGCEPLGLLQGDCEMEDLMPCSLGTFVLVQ
Sequence of GRK7(h) (Q8WTQ7 whole entry): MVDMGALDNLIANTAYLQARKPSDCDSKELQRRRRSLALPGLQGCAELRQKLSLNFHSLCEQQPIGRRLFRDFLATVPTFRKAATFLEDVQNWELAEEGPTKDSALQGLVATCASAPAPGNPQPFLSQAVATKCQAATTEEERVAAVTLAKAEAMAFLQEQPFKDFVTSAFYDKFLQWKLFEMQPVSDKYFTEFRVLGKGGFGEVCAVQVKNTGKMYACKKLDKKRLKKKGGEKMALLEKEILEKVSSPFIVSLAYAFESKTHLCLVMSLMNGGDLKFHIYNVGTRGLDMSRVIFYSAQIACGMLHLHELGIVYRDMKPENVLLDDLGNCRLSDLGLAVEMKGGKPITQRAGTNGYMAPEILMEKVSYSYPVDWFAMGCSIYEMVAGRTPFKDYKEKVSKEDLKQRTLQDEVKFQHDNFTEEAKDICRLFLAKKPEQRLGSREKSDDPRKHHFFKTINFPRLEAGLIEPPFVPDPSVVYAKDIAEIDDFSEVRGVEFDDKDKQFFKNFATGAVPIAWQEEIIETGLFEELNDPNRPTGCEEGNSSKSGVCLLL

Row | SMILES | inhibition at 1 µM [1] [%] | inhibition at 1 µM [2] [%] | inhibition at 1 µM [3] [%] | inhibition at 1 µM [4] [%] | inhibition at 1 µM [5] [%] | inhibition at 1 µM [6] [%] | inhibition at 1 µM [7] [%] | inhibition at 1 µM [8] [%] | inhibition at 1 µM [9] [%] | inhibition at 1 µM [10] [%] | inhibition at 1 µM [11] [%] | inhibition at 1 µM [12] [%] | inhibition at 1 µM [13] [%] | inhibition at 1 µM [14] [%] | inhibition at 1 µM [15] [%] | inhibition at 1 µM [16] [%] | inhibition at 1 µM [17] [%] | inhibition at 1 µM [18] [%] | inhibition at 1 µM [19] [%] | inhibition at 1 µM [20] [%] | other results
1 | Nc1n[nH]c2ccc(-c3ccnc4[nH]c(-c5cccc(OCc6ccccc6)c5)cc34)cc12 [Compound 5r [SU1261]] | -2 | 23 | -17 | 3 | 8 | 62 | 24 | -5 | -6 | -3 | 19 | 1 | 18 | 14 | 8 | -18 | -16 | 10 | 4 | -3 | inhibition at 1 µM [21]: 22%; inhibition at 1 µM [22]: 17%; inhibition at 1 µM [23]: -5%; inhibition at 1 µM [24]: 8%; inhibition at 1 µM [25]: 21%; inhibition at 1 µM [26]: -22%; inhibition at 1 µM [27]: 22%; inhibition at 1 µM [28]: 39%; inhibition at 1 µM [29]: 33%; inhibition at 1 µM [30]: -1%; inhibition at 1 µM [31]: 0%; inhibition at 1 µM [32]: -3%; inhibition at 1 µM [33]: -8%; inhibition at 1 µM [34]: 0%; inhibition at 1 µM [35]: -27%; inhibition at 1 µM [36]: 14%; inhibition at 1 µM [37]: 13%; number of kinases inhibited by >80% [38]: 10 kinases
2 | Nc1n[nH]c2ccc(-c3ccnc4[nH]c(-c5ccccc5)cc34)cc12 [Compound 4] | -2 | 74 | 16 | 11 | 10 | 29 | 67 | 3 | 4 | 10 | 29 | 51 | 55 | 48 | 35 | -13 | 7 | 30 | -10 | 12 | inhibition at 1 µM [21]: 32%; inhibition at 1 µM [22]: 55%; inhibition at 1 µM [23]: 45%; inhibition at 1 µM [24]: 56%; inhibition at 1 µM [25]: 50%; inhibition at 1 µM [26]: -21%; inhibition at 1 µM [27]: 29%; inhibition at 1 µM [28]: 79%; inhibition at 1 µM [29]: 54%; inhibition at 1 µM [30]: 12%; inhibition at 1 µM [31]: -8%; inhibition at 1 µM [32]: 26%; inhibition at 1 µM [33]: 12%; inhibition at 1 µM [34]: -14%; inhibition at 1 µM [35]: -8%; inhibition at 1 µM [36]: 63%; inhibition at 1 µM [37]: 43%; number of kinases inhibited by >80% [38]: 44 kinases
